# Test results published in ChEMBL document CHEMBL1133372, “Mechanistic studies on type I and type II dehydroquinase with (6R)- and (6S)-6-fluoro-3-dehydroquinic acids” (Bioorg Med Chem Lett, 2000).
# Tests used:
# [1] = tested on: Aspergillus nidulans; experiment: The compound was evaluated for its kinetic parameter (Km) against type 2 Dehydroquinase of Aspergillus nidulans
# [2] = tested on: Mycobacterium tuberculosis; experiment: Kcat value was evaluated against type 2 Dehydroquinase of Mycobacterium tuberculosis
# [3] = tested on: Aspergillus nidulans; experiment: Kcat value was evaluated against type 2 Dehydroquinase of Aspergillus nidulans
# [4] = tested on: Mycobacterium tuberculosis; experiment: The compound was evaluated for its kinetic parameter (Km) against type 2 Dehydroquinase of Mycobacterium tuberculosis
# [5] = molecular target: T1, 3-dehydroquinate dehydratase (Escherichia coli K-12) (UniProt P05194); experiment: Kcat value was evaluated against type 1 Dehydroquinase of Escherichia coli
# T1 sequence (whole entry): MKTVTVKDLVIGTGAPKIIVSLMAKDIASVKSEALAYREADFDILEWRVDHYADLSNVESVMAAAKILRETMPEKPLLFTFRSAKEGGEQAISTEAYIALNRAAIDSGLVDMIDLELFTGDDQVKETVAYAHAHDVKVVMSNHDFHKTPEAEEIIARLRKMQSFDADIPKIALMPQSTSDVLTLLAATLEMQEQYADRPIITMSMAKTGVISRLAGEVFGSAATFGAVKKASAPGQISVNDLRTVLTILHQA
# [6] = molecular target: T1, 3-dehydroquinate dehydratase (Escherichia coli K-12); experiment: Kcat / Km value was evaluated against type 1 Dehydroquinase of Escherichia coli
Compound,Km [1] [µM],k cat [2] [s⁻¹],k cat [3] [s⁻¹],Km [4] [µM],k cat [5] [s⁻¹],k cat/Km [6] [M⁻¹ s⁻¹]
O=C1CC(O)(C(=O)O)CC(O)C1O (stereo unspecified),122,2.6,313,13,,
O=C1CC(O)(C(=O)O)C(F)C(O)C1O (stereo in doubt; 2),39,0.14,4.6,3.6,3,310000
O=C1CC(O)(C(=O)O)C(F)C(O)C1O (stereo in doubt; 3),50,1.1,46,7.9,36,310000
